Consider four compounds from ChEMBL document CHEMBL3272260, “Metabolic and photochemical hydroxylation of 5-nitro-2-furancarboxaldehyde derivatives” (J Med Chem, 1976).

The nature of data set [1]: Half life of the compound under in-vacuo condition. The data set is classed as physicochemical.
Data set [2] in a line: Half life of the compound under atmospheric pressure condition. The data set is classed as physicochemical.
Data set [3] is described as follows: Chemical stability of the compound. The data set is classed as physicochemical.
Data set [4] can be described thus: Drug metabolism in rat urine treated with nitrofurantoin at 100 mg/kg, po measured up to 6 hrs by UV-spectroscopic analysis. To be noted: in vivo. Details: dose 100 mg/kg, route oral. The data set is classed as ADME, organism-based.
The nature of data set [5]: Drug metabolism in rat urine treated with nitrofurantoin at 100 mg/kg, po measured up to 6 hrs by IR-spectroscopic analysis. The class given is ADME, organism-based. Details: dose 100 mg/kg, route oral. To be noted: in vivo.
The nature of data set [6]: Drug metabolism in rat urine treated with nitrofurantoin at 100 mg/kg, po measured up to 6 hrs by NMR-spectroscopic analysis. The data set is classed as ADME, organism-based. Details: dose 100 mg/kg, route oral. The following applies: in vivo.
Data set [7] can be described thus: Half life of the compound in 0.1% aqueous solution. The class given is physicochemical.
The nature of data set [8]: Dissociation constant, pKa of the compound by potentiometric titration analysis. The class given is physicochemical.

With `O.O=C1OCCN1/N=C/c1cc(O)c([N+](=O)[O-])o1`, the values for the half-life in data set [1] and in data set [2] were above 624 h and 120 h, respectively.

Take `O=C1C=C(/C=N/N2CCOC2=O)OC1=[N+]([O-])[O-].[K+]`: in data set [3], the Stability entry is given as “Stable”.

For `O.O=C1CN(/N=C/C2=CC(=O)C(=[N+]([O-])[O-])O2)C(=O)N1.[K+]`, the Drug metabolism entry in data set [4], in data set [5] and in data set [6] was “metabolite_detected” throughout. In addition, the Stability result in data set [3] is recorded as “Stable”.

As for `O.O.O=C1OCCN1/N=C/c1cc(O)c([N+](=O)[O-])o1`, the half-life (commonly the time needed for the level to fall by half in the phase considered) at 0.1 % in data set [7] was 48 h. In addition, in data set [8], the pKa (usually the negative logarithm of the acid dissociation constant) was determined as 2.7.
